How the values were obtained:
BuChE from human serum = target: T1, BuChE from human serum (Homo sapiens, UniProt P06276); assay: In vitro BuChE inhibition assay (Ellman); type: biochemical; settings: for IC50: mean ± SEM, 3 experiments, butyrylthiocholine substrate
T1 construct: BuChE from human serum (EC 3.1.1.8); purchased Sigma; host or cells: human serum (tissue-derived)
Description: (§1) AChE from human erythrocytes (EC 3.1.1.7) (min. 500 units/mg protein in buffered aqueous solution) and BuChE from human serum (EC 3.1.1.8) (3 units/mg protein, lyophilised powder) were purchased from Sigma.
(§2) Compounds were evaluated in 100 mM phosphate buffer pH 8.0 at 30 °C, using acetylthiocholine and butyrylthiocholine (0.4 mM) as substrates, respectively. In both cases, 5,5-dithio-bis(2-nitrobenzoic) acid (DTNB, Ellman’s reagent, 0.2 mM) was used and the values of IC50 were calculated by UV spectroscopy from the absorbance changes at 412 nm. Experiments were performed in triplicate.

[1] = target: T2, AChE from human erythrocytes (Homo sapiens, UniProt P22303); assay: In vitro AChE inhibition assay (Ellman); type: biochemical; settings: for inhibition at 10 µM: 10 µM compound, read-out: AChE percentage of inhibition at 10 µM; for IC50: mean ± SEM, 3 experiments, acetylthiocholine substrate
T2 construct: AChE from human erythrocytes (EC 3.1.1.7); purchased Sigma; host or cells: human erythrocytes (tissue-derived)
T2 sequence (P22303 32-617 isoform P22303-2 limits assumed): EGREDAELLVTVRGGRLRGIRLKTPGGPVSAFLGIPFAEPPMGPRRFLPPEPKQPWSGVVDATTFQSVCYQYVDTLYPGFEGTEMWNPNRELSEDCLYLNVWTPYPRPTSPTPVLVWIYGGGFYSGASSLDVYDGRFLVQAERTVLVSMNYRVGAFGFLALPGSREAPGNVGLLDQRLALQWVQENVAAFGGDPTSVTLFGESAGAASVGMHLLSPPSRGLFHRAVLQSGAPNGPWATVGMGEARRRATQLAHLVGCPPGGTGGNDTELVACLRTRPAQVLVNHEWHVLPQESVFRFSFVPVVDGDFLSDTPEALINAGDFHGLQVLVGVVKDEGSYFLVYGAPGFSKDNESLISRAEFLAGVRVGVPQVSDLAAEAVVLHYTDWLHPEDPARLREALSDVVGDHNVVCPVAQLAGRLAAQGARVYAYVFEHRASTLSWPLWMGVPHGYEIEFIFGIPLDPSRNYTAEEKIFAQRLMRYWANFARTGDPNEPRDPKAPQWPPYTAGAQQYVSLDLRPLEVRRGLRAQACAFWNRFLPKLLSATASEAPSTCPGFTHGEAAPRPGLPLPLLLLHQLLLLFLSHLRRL
Description: as §1, §2

BuChE = target: T3, BuChE (Homo sapiens, UniProt P06276); assay: Kinetic study of BuChE inhibition (Lineweaver-Burk plots); type: biochemical; parameters: key to Type of Inhibition (BuChE): M: mixed
T3 construct: BuChE from human serum (EC 3.1.1.8); purchased Sigma; host or cells: human serum (tissue-derived)
T3 sequence (P06276 29-602): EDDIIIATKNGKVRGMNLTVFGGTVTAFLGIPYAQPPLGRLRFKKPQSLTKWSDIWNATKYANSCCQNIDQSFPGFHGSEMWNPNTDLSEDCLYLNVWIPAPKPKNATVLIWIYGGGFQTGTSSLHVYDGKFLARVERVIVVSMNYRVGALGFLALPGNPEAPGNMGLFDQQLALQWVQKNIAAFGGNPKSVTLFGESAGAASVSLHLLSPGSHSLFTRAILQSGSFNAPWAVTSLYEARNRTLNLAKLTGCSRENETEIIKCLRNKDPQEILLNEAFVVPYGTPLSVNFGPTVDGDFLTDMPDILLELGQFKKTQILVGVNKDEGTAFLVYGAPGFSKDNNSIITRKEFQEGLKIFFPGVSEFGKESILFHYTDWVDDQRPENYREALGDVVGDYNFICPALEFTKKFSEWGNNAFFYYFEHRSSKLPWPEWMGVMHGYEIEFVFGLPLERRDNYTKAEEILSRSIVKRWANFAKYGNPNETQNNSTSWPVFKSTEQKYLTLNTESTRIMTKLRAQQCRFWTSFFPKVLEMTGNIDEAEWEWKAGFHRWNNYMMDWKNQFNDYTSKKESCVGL
Description: To investigate the mechanism of action of the compounds on AChE or BuChE, a kinetic analysis was performed. The experiments were carried out using combinations of four substrate concentrations and three inhibitor concentrations. Double-reciprocal Lineweaver–Burk plots of the data obtained, in which each point is the mean of three different experiments, were analysed.
Competitive inhibitors have the same y-intercept as uninhibited enzymes (since Vmax is unaffected by competitive inhibitors the inverse of Vmax also doesn’t change), but there are different slopes and x-intercepts. Non-competitive inhibition produces plots with the same x-intercept as uninhibited enzyme (Km is unaffected) but different slopes and y-intercepts. Uncompetitive inhibition causes different intercepts on both the y- and x-axes, but the same slope. Mixed inhibitors cause intersects above or below the x-axes.
The Ki, values were determined by fitting the kinetic data to a competitive, non-competitive, or mixed inhibition model by nonlinear regression analysis using GraphPad Prism[35].

BACE1 = target: T4, BACE1 (Homo sapiens, UniProt P56817); assay: BACE1 enzymatic FRET assay; type: biochemical; settings: for IC50: pH 4.5, mean ± SEM
T4 construct: purchased Invitrogen
T4 sequence (P56817 46-501): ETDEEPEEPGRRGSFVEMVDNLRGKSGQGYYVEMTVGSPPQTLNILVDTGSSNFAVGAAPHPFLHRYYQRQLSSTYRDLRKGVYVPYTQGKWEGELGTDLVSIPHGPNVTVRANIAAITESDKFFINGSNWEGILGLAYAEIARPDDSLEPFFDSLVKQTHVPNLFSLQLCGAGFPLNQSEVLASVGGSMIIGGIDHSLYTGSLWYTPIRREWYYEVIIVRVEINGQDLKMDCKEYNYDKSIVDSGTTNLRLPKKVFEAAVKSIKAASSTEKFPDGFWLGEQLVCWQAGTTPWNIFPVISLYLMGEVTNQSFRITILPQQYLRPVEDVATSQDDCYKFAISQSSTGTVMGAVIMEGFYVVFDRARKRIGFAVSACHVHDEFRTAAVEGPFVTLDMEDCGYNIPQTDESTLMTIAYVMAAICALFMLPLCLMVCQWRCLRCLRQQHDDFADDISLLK
Description: The BACE1 ([…]) assay was carried out according to the manufacturer’s described protocol which is available from Invitrogen[36].
Briefly, BACE1 in vitro assays were carried out using fluorescence resonance energy transfer (FRET). An APP-based peptide substrate (rhodamine-EVNLDAEFK-quencher, Km of 20 μM) carrying the Swedish mutation and containing rhodamine as a fluorescence donor and a quencher acceptor at each end was used. The intact substrate is weakly fluorescent and becomes highly fluorescent upon enzymatic cleavage. The assays were conducted in 50 mM sodium acetate buffer, pH 4.5, at a final enzyme concentration of 1 U/mL. Inhibitor screening was performed at 10 μM. The mixture was incubated for 60 min at 25 °C under dark conditions and then stopped with 2.5 M sodium acetate. Fluorescence was measured with a FLUOstar Optima (BMG Labtechnologies GmbH, Offenburg, Germany) microplate reader at 545 nm excitation and 585 nm emission. The assay kit was validated by the manufacturer.

[2] = Oxygen radical absorbance capacity assay (ORAC-FL); settings: pH 7.4
Description: The ORAC-FL method of Ou et al.[37], partially modified by Dávalos et al.[38], was followed, using a FLUOstar Optima (BMG Labtechnologies GmbH, Offenburg, Germany) with 485 excitation and 520 emission filters. 2,2′-Azobis-(amidinopropane) dihydrochloride (AAPH), (±)-6-hydroxy-2,5,7,8-tetramethylchromane-2-carboxylic acid (trolox) and fluorescein (FL) were purchased from Sigma-Aldrich. The reaction was carried out in 75 mM phosphate buffer (pH 7.4) and the final reaction mixture was 200 µL. […] The mixture was pre-incubated for 30 min at 37 °C and then AAPH solution (25 µL, 240 mM) was added rapidly using a multichannel pipette. The microplate was immediately placed in the reader and the fluorescence was recorded every 90 s. for 90 min. The microplate was automatically shaken prior to each reading. Samples were measured at four different concentrations (10^−1 µM). A blank (FL + AAPH in phosphate buffer) instead of the sample solution and four calibration solutions using trolox (10^−1 µM) was also used in each assay. All of the reaction mixtures were prepared in duplicate and at least three independent assays were performed for each sample. Raw data were exported from the Fluostar optima Software to an Excel sheet for further calculations. Antioxidant curves (fluorescence vs. time) were represented and the area under the curve (AUC) is calculated as: AUC =f1/f0+fi/f0+ … +f34/f0+ (f35/f0) where fo = initial fluorescence reading at 0 min and fi = fluorescence reading at time i. The net AUC is obtained by subtracting the AUC of the blank from that of a sample. The relative Trolox equivalent ORAC value is calculated as: Relative ORAC value =[(AUC sample - AUC blank)/(AUCT rolox - AUC blank)](molarity of trolox/molarity of sample)

[3] = system: SH-SY5Y human neuroblastoma cells; assay: Amyloid-beta peptide neurotoxicity, neuroprotection in SH-SY5Y cells (MTT); type: cell-based; settings: 24 h
Description: SH-SY5Y human neuroblastoma cells were obtained from American Type Culture Collection. Cells were maintained at 37 °C in a 5% CO2 humidified atmosphere in DMEM-Glutamax supplemented with heat-inactivated 10% foetal bovine serum and 1% penicillin/streptomycin. All experiments with Aβ1–42 used DMEM-Glutamax without phenol in the media.
The compounds were dissolved in 100% dimethyl sulphoxide (DMSO) as a 10 mM stock and diluted with culture medium to final concentrations. Aβ1–42 powder (AnaSpec, Inc., San Jose, CA) was dissolved in acetic acid (0.1 M) obtaining a 2 μg/μL stock. Then Aβ1-42 was oligomerised in no phenol red DMEM for 24 h at 37 °C. The final concentration in cells cultures was 5 μM. All dilutions of stock were prepared fresh before addition to the culture medium.
SH-SY5Y cells were treated with 5 μM Aβ1-42 for 24 h and pre-treated or not for 1 h with increasing concentrations of compounds. After treatment, cultures were processed for a cell viability assay using MTT assay.
(§3) Cell viability was measured using the 3-(4,5-Dimethylthiazol-2-yl)-2,5-diphenyltetrazolium bromide (MTT) assay, based on the ability of viable cells to reduce yellow MTT to blue formazan. Briefly, cells cultured in 96-well plates and treated with the indicated compounds for 16 h were incubated with MTT (0.5 mg/ml, 4 h) and subsequently solubilised in DMSO. The extent of reduction of MTT was quantified by absorbance measurement at 595 nm according to the manufacturer’s protocol.

Raw 264.7 cells [4] = assay: Cell viability (MTT) of Raw 264.7 cells; type: cell-based
Description: as §3

Raw 264.7 cells [5] = assay: Nitrite determination (Griess) in LPS-stimulated Raw 264.7 cells; type: cell-based, murine; settings: LPS 0.4 µg/mL, 24 h
Description: The content of nitrite, one of the end-products of NO oxidation, was monitored by a procedure based on the diazotidation of nitrite by sulphanilic acid (Griess reaction). Twenty-four hours after the incubation of Raw 264.7 cells with 0.4 µg/mL of LPS, 50 µL of sample aliquots were mixed with 50 µL of Griess reagent in 96-well plates and incubated at room temperature for 15 min. The absorbance (520 nm) of the mixture was measured on a microplate reader. The concentration of nitrite was calculated with the linear equation derived from the standard curve generated by known concentrations of sodium nitrite.

[6] = 10 µM compound added 1 h prior to 5 µM Aβ

T1 sequence (P06276 29-602): as the sequence (P06276 29-602) above

SMILES	IC50 (BuChE from human serum) [µM]	inhibition at 10 µM [1] [%]	IC50 [1] [µM]	Type of Inhibition (BuChE) (BuChE)	IC50 (BACE1) [µM]	ORAC (Oxygen Radical Absorbance Capacity) [2]	Aβ-induced death of SH-SY5Y cells [3, 6]	Cytotoxicity on Raw 264.7 cells viability (Raw 264.7 cells [4]; 10 µM)	Aβ-induced death of SH-SY5Y cells ([3]; 5 µM compound added 1 h prior to 5 µM Aβ)	LPS-induced NO production (extracellular nitrite) (Raw 264.7 cells [5]; 10 µM compound)	LPS-induced NO production (extracellular nitrite) (Raw 264.7 cells [5]; 20, 30 and 40 µM compound)	Cytotoxicity on Raw 264.7 cells viability (Raw 264.7 cells [4]; 10, 20, 30, 40 µM)	BuChE percentage of inhibition at 10 µM (BuChE from human serum; 10 µM compound)	inhibition at 10 µM (BuChE from human serum; 10 µM compound, read-out: BuChE percentage of inhibition at 10 µM) [%]	inhibition at 10 µM (BACE1; pH 4.5, 10 µM compound, read-out: BACE1 percentage of inhibition at 10 µM) [%]	BuChE inhibition mode of action (in words) (BuChE)
c1ccc(Cn2nc(OCc3cccc4ccccc34)c3cc(NCCCN4CCCCC4)ccc32)cc1 [Compound 1]	3.2 ± 0.5	23	> 10	M	2.7 ± 0.1	1.1 ± 0.1 μmol of Trolox equivalents/μmol of tested compound	significantly reduced cell death	show cytotoxicity								
Clc1cccc(Cn2nc(OCc3ccccc3)c3cc(NCCCN4CCCCC4)ccc32)c1Cl [Compound 2]	0.4 ± 0.04	27	> 10	M	3.2 ± 0.2	0.7 ± 0.1 μmol of Trolox equivalents/μmol of tested compound		show cytotoxicity	able to prevent cell death							
Clc1ccc(Cn2nc(OCc3cccc4ccccc34)c3cc(NCCCN4CCCCC4)ccc32)cc1Cl [Compound 3]	0.17 ± 0.05	38	> 10	M	2.1 ± 0.2	0.6 ± 0.1 μmol of Trolox equivalents/μmol of tested compound	significantly reduced cell death	did not show any significant cytotoxic effect		able to attenuate LPS-induced NO production						
Clc1ccc(Cn2nc(OCc3ccc4ccccc4c3)c3cc(NCCCN4CCCCC4)ccc32)cc1Cl [Compound 4]	0.57 ± 0.2	26	> 10	M	1.9 ± 0.1	0.7 ± 0.1 μmol of Trolox equivalents/μmol of tested compound	significantly reduced cell death	show cytotoxicity								
c1ccc2cc(COc3nn(Cc4ccc5ccccc5c4)c4ccc(NCCCN5CCCCC5)cc34)ccc2c1 [Compound 6]	3.7 ± 0.3		9 ± 1	M	3.4 ± 0.2	0 μmol of Trolox equivalents/μmol of tested compound	significantly reduced cell death			able to attenuate LPS-induced NO production	inhibited NO production	did not show any significant cytotoxic effect				
Nc1ccc2c(c1)c(OCc1cccc3ccccc13)nn2Cc1ccccc1 [Compound 32]	> 10		> 10		> 10	1.0 ± 0.1 μmol of Trolox equivalents/μmol of tested compound										
Nc1ccc2c(c1)c(OCc1cccc3ccccc13)nn2Cc1ccc(Cl)cc1 [Compound 33]	> 10		> 10		5.8 ± 0.5	1.0 ± 0.1 μmol of Trolox equivalents/μmol of tested compound										
Nc1ccc2c(c1)c(OCc1cccc3ccccc13)nn2Cc1ccc(Cl)c(Cl)c1 [Compound 34]	> 10		3.5 ± 0.6			0.33 ± 0.05 μmol of Trolox equivalents/μmol of tested compound							very slight inhibition	32	72	
COc1cc2c(cc1OC)C(=O)C(CC1CCN(Cc3ccccc3)CC1)C2 (stereo not drawn) [donepezil, reference compound]																mixed type
